Measurements reported in US20240246960A1 (adMare Therapeutics Society, priority 2021, published 2024).
Like-named read-outs stand apart in the source and are kept apart here.

Assays:
[1] = biological target: T1, DNA-PK phosphorylation at Serine 2056 (Homo sapiens, UniProt P78527); test: Cellular Assay for Inhibition of DNA-PK Phosphorylation at Serine 2056 (FaDu cells, neocarzinostatin, sandwich ELISA); assay type: cell-based; details: Table 1
T1 construct: host or cells: FaDu
Procedure, shortened: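 FaDu cells were pretreated with compound (0.3% DMSO) for 1 h, then exposed to neocarzinostatin at 1 μg/mL final for 2 h to induce DSBs. Protein-normalized lysates were assayed by MSD sandwich ELISA for total and pSer2056 DNA-PK. IC50 came from variable-slope fits of % inhibition relative to DMSO and NCS controls.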

[2] = biological target: T2, pDNA-PK ser2056 induction in FaDU spheroids (Homo sapiens, UniProt P78527); test: Multicellular tumour spheroid + radiation, pDNA-PK inhibition, FaDU; assay type: cell-based; details: 20 Gy
T2 construct: host or cells: FaDu
Procedure, shortened: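 HCT116 or FaDU spheroids (~0.5 mm) in MEM/10% FBS/10 mM glucose, 20% O2, 5% CO2, 37 °C, stirred, irradiated with 20 Gy alongside compound serially diluted from 10 μM to 3.5 nM. Cryosections taken 2 h post-radiation, immunostained for pDNA-PK ser2056; EC50 is concentration halving pDNA-PK induction. Survival endpoint: 8 Gy, dissociation at 3 h, colony formation.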

[3] = test system: HCT116 spheroids; test: Spheroid + radiation colony forming cell survival assay (SF), HCT116; assay type: cell-based; details: 8 Gy
Description: Multicellular tumour spheroids determination of compound inhibition of pDNA-PK induction following radiation. Tumour spheroids were grown to approximately 0.5 mm in diameter and irradiated with 20 Gy in combination with inhibitor test compounds to determine their potency. Inhibitor concentration for 50% reduction in pDNA-PK induction (IC50) was determined via immunohistochemical staining in spheroid cryosections taken 2 hours following radiation. For cell survival endpoint 8 Gy radiation was used and 3 hours following radiation spheroids were dissociated, counted and plated for colony forming endpoint.
Spheroid+radiation colony forming cell survival assay (SF). Radiation 8 Gy. Drug: serial dilution 5 μM down to 10 nM (12 wells×2 repeat). Spheroids: 5-10 spheroids per well ([…]). HCT116. 5% O2 and 5% CO2. 96 well pate format for assay. Protocol: pre incubate 1 hour with drug, irradiate 8 Gy, post incubate 3 hrs with drug, dissociate spheroids and count cells and plate for colony forming assay. Endpoint: wait 4-7 days and count colonies. Analysis: determine EC50 concentration that increase cell kill by 50% over radiation alone.
Multicellular tumour spheroids were used to determine potency of test compounds in a 3D tissue environment using inhibition of pDNA-PK induction following radiation or cell survival as the endpoint. For the pDNA-PK endpoint HCT116 or FaDU tumour spheroids were grown to approximately 0.5 mm in diameter and irradiated with 20 Gy in combination with inhibitor test compounds to determine their potency. Experiments were carried out in 96 well plates containing 0.7 mls of MEM media containing 10% FBS and 10 mM glucose under 20% O2 & 5% CO2 at 37° C. Following dilution of compounds 1:1000 from DMSO stocks, compounds were serially diluted from 10 μM down to 3.5 nM and 5-10 spheroids added. 96 well plates were constantly stirred to avoid spheroids settling during the course of the experiment. The inhibitor concentration for 50% reduction in pDNA-PK induction (EC50) was determined via immunohistochemical staining in spheroid cryosections taken 2 hours following radiation using anti-pDNA-PK (ser 2056) and fixed immediately in formalin following sectioning. For cell survival endpoint 8 Gy radiation was used and, 3 hours following radiation, spheroids were dissociated, counted and plated for colony forming endpoint. Data presented in the table compound potency as EC50 [μM].

[4] = Hepatocyte stability assay, mouse hepatocytes; assay type: in vitro ADME; details: for hepatocyte CLint at 1 uM: male, CD-1, mouse, cryopreserved hepatocytes, pH 7.3, 0.7 million cells per mL, 1 uM compound
Procedure, shortened: (§1)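 Pooled cryopreserved hepatocytes (male CD-1 mouse, or mixed-gender human donors; ≥10 each) at 0.7 million viable cells/mL in Krebs-Henseleit buffer pH 7.3, with 1 uM compound (≤0.01% DMSO). Incubated up to 2 h at 37 °C/5% CO2, quenched with acetonitrile; parent compound followed by HPLC-MS/MS peak area.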

[5] = Hepatocyte stability assay, human hepatocytes; assay type: in vitro ADME; details: for hepatocyte CLint at 1 uM: both sexes, human, cryopreserved hepatocytes, pH 7.3, 0.7 million cells per mL, 1 uM compound
Procedure, shortened: as §1

[6] = Microsomal stability assay, mouse liver microsomes; details: for microsomal CLint at 0.1 uM: male, CD-1, mouse, liver microsomes, pH 7.4, Microsomal Stability Mouse Clint, 0.1 mg/mL microsomes, 0.1 uM compound
Description: Mouse liver microsomes were obtained from a pool of 250 or more male CD-1 mice. […] Final microsomal concentration was 0.1 mg/mL and test compound concentration was 0.1 uM with a maximum of 0.01% DMSO. The test compound was pre-incubated with pooled liver microsomes in phosphate buffer (pH 7.4) for 5 min in a 37° C. shaking water bath. The reaction was initiated by adding NADPH-generating system and incubated for 0, 15, 30, 45, and 60 min. The reaction was stopped by transferring the incubation mixture to acetonitrile/methanol. Samples were then mixed and centrifuged. Supernatants were used for HPLC-MS/MS analysis. The HPLC system consisted of a binary LC pump with autosampler, a C-18 column, and a gradient. Peak areas corresponding to the test compound were recorded. The compound remaining was calculated by comparing the peak area at each time point to time zero. The half-life was calculated from the slope of the initial linear range of the logarithmic curve of compound remaining (%) vs. time, assuming first order kinetics. In addition, the intrinsic clearance (Clint) was calculated from the half-life.

[7] = Example 8, spheroid, read-out: Cell line: FaDU Immunohistochemical endpoint pDNA-PK inhibition EC50
[8] = Example 9 Study 2, 20% O2, read-out: Spheroid Cell line: FaDU Immunohistochemical endpoint pDNA-PK inhibition EC50
[9] = Example 8, spheroid, read-out: Cell line: HCT116 Colony forming endpoint Surviving Fraction EC50
[10] = Example 9 Study 2, read-out: Spheroid Cell line: HCT116 Colony forming endpoint Surviving Fraction EC50

Row | IC50 [1] [nM] | EC50 [2, 7] [nM] | EC50 [2, 8] [nM] | Hepatocyte Stability (mouse) % rem. 120 min [4] | hepatocyte CLint at 1 uM [4] [µL/min/1e6 cells] | Hepatocyte Stability (human) % rem. 120 min [5] | hepatocyte CLint at 1 uM [5] [µL/min/1e6 cells] | Microsomal Stability (mouse) % rem. 60 min [6] | microsomal CLint at 0.1 uM [6] [µL/min/mg] | SMILES | EC50 [3, 9] [nM] | EC50 [3, 10] [nM]
1 | 100 to 1000 | 500 to 1000 | 500 to 1000 | F (% remaining = 25-50%) | > 8.2 | F (% remaining = 25-50%) | > 8.2 | E (% remaining = 0-25%) | > 116 | c1cnc(N[C@H]2CC[C@@H](Oc3nc(N4CCOCC4)cc4ncccc34)CC2)nc1 [Compound 20a, N-((1s,4s)-4-((7-Morpholino-1,6-naphthyridin-5-yl)oxy)cyclohexyl)pyrimidin-2-amine] | 10 to 500 | 10 to 500
2 | 100 to 1000 | 500 to 1000 | 500 to 1000 |  |  |  |  | E (% remaining = 0-25%) | > 116 | Cc1cnc(N[C@H]2CC[C@@H](Oc3nc(N4CCOCC4)cc4ncccc34)CC2)nc1 [Compound 32, 5-Methyl-N-((1s,4s)-4-((7-morpholino-1,6-naphthyridin-5-yl)oxy)cyclohexyl)pyrimidin-2-amine] | 10 to 500 | 10 to 500
3 | 100 to 1000 | 10 to 500 | 10 to 500 | G (% remaining = 50-75%) | < 8.2 | H (% remaining = 75-100%) | < 8.2 | G (% remaining = 50-75%) | < 116 | O=C(N[C@H]1CC[C@@H](Oc2nc(N3CCOCC3)cc3ncccc23)CC1)c1ncccn1 [Compound 123, N-((1s,4s)-4-((7-Morpholino-1,6-naphthyridin-5-yl)oxy)cyclohexyl)pyrimidine-2-carboxamide] | 10 to 500 | 10 to 500

The remaining lines, values behind:

Row | SMILES | IC50 [1] [nM] | EC50 [2, 7] [nM] | EC50 [2, 8] [nM] | Hepatocyte Stability (mouse) % rem. 120 min [4] | hepatocyte CLint at 1 uM [4] [µL/min/1e6 cells] | Hepatocyte Stability (human) % rem. 120 min [5] | hepatocyte CLint at 1 uM [5] [µL/min/1e6 cells] | Microsomal Stability (mouse) % rem. 60 min [6] | microsomal CLint at 0.1 uM [6] [µL/min/mg] | EC50 [3, 9] [nM] | EC50 [3, 10] [nM]
4 | FC(F)(F)c1cnc(N[C@H]2CC[C@@H](Oc3nc(N4CCOCC4)cc4ncccc34)CC2)nc1 [Compound 34, N-((1s,4s)-4-((7-Morpholino-1,6-naphthyridin-5-yl)oxy)cyclohexyl)-5-(trifluoromethyl)pyrimidin-2-amine] | 100 to 1000 | 1000 to 10000 | 1000 to 10000 |  |  |  |  | E (% remaining = 0-25%) | > 116 | 1000 to 10000 | 1000 to 10000
5 | O=C(N[C@H]1CC[C@@H](Oc2nc(N3CCOCC3)cc3ncccc23)CC1)c1cncnc1 [Compound 122, N-((1s,4s)-4-((7-Morpholino-1,6-naphthyridin-5-yl)oxy)cyclohexyl)pyrimidine-5-carboxamide] | 100 to 1000 | 500 to 1000 | 500 to 1000 | E (% remaining = 0-25%) | > 8.2 |  |  | G (% remaining = 50-75%) | > 116 | 500 to 1000 | 500 to 1000
6 | O=C(N[C@H]1CC[C@@H](Oc2nc(N3CCOCC3)cc3ncccc23)CC1)c1ccco1 [Compound 132, N-((1s,4s)-4-((7-Morpholino-1,6-naphthyridin-5-yl)oxy)cyclohexyl)furan-2-carboxamide] | < 100 | 10 to 500 | 10 to 500 |  |  |  |  | E (% remaining = 0-25%) | > 116 | 10 to 500 | 10 to 500
